Tests used:
[1] = Lipid peroxidation of liposomes using H2O2+FeCl2; assay type: biochemical; details: vs negative control
Procedure: (§1) In order to determine the action of teprenone as per the invention, the effect of the active substance on the lipid peroxidation of liposomes was analyzed. The liposomes were used to model cutaneous lipids.
In this method, liposomes are exposed to the test compound and a Fenton oxidative system. The peroxidation is determined by spectrophotometry. Trolox, a known anti-free radical agent, is used as the positive control at the same molar concentration as a teprenone.

[2] = Lipid peroxidation of liposomes using UVA radiation; assay type: biochemical; details: UVA induced, vs negative control
Procedure: as §1
In this method, liposomes are exposed to the test compound and then to UV A radiation. Peroxidation is determined by spectrophotometry at 233 nm.

catalase = experiment: Catalase activity in human skin explants after UVB (Clairborne-Aebi method); assay type: cell-based; details: after UVB 2 J/cm2; 0.05 mM
Procedure: Human skin explants obtained from a patient having undergone plastic surgery were cultured with or without teprenone or Trolox (positive control) for 48 hours then exposed to UV B radiation (2 J/cm^2). After irradiation, the explants were again cultured in fresh medium with or without teprenone or Trolox for 24 hours. Similars explants were also used in immunolabeling tests on heat shock proteins (HSP) and in the apoptosis study.
Catalase anti-oxidant activity was determined by the Clairborne-Aebi method. Hydrogen peroxide (H2O2) consumption is directly proportional to catalase activity. The consumption was determined by spectrophotometry at 240 nm

Hsp70 = Hsp70 immunolabeling in UVB-irradiated human skin explants; assay type: cell-based; details: 0.1 mM
Description: (§2) Heat Schock proteins (Hsp) are cellular protective molecules which contribute to the correct proteinic folding, thus preserving the protein activity. Hsp 27 is a protective chaperone protein very present in the keratinocytes at the basal state. In situation of UV stress, cell increases its rate of protection and Hsp 27 is strongly overexpressed. Hsp70 is a chaperone protein less expressed in a basal state but induced in response to the UV, thermics, mechanics or infectious stress.
(§3) Human skin explants are treated in a similar way to the previous experiment (protection on the catalase activity): taken from a plastic surgery, they are cultivated for 48 h in the presence or not, for control, of teprenone (or trolox) at various concentrations, then irradiated or not using a source UVB (2 J/cm2). After irradiation skin explants were post-treated (24 h) or not with teprenone (or trolox) at the same concentrations.
(§4) Explants were embedded in OCT, sectioned using a freezing microtome, and slide mounted. The mounted specimens were immunolabeled with anti-human Hsp antibody.

Hsp27 = Hsp27 immunolabeling in UVB-irradiated human skin explants; assay type: cell-based; details: 0.1 mM
Description: as §2, §3, §4

[3] = system: sunburn cells (SBC) in human skin explants; experiment: Sunburn cells (SBC) in human skin explants after UVB; assay type: cell-based; details: after UVB 2 J/cm^2
Procedure: With a view to determining the action of teprenone as per the invention, the effect of the active substance on the presence of sunburn cells (SBC) and apoptotic cell in human skin explants was investigated.
Human skin explants are treated in a way similar to the preceding experiment of description of the protective role of the teprenone on the catalase activity (obtained from a patient having undergone plastic surgery, cultured with or without teprenone for 48 hours then exposed to UV B radiation (2 J/cm^2). After irradiation, the explants were again cultured in fresh medium with or without teprenone for 24 hours).
SBC were evidenced on paraffin-wax-embedded skin explant sections by staining with […]. SBC, apoptotic keratinocytes with pyknotic nuclei and eosinophilic cytoplasm, are characteristic of mammalian epidermis exposed to UV B radiation.

## Cc1c(C)c2c(c(C)c1O)CCC(C)(C(=O)O)O2 (centres unmarked) [Trolox, 6-hydroxy-2,5,7,8-tetramethylchroman-2-carboxylic acid]
[1]; concentration 2.2 · 10^−2%
  Variation of peroxydation: −88%
[1]; concentration 2.2 · 10^−3%
  Variation of peroxydation: −87%
[1]; concentration 2.2 · 10^−4%
  Variation of peroxydation: −83%
[1]; concentration 7.5 · 10^−3%
  Variation of peroxydation: −87%
[1]; concentration 7.5 · 10^−4%
  Variation of peroxydation: −82%
[2]; concentration 2.2 · 10^−2%
  Variation of peroxydation: −86%
[2]; concentration 2.2 · 10^−3%
  Variation of peroxydation: −88%
[2]; concentration 2.2 · 10^−4%
  Variation of peroxydation: −74%
[2]; concentration 7.5 · 10^−3%
  Variation of peroxydation: −88%
[2]; concentration 7.5 · 10^−4%
  Variation of peroxydation: −86%
catalase
  catalase activity: 90 UI/mg of protein
Hsp70
  Hsp70: Protection vs. irradiated (%): 100%
Hsp70; UVB 2 J/cm2, n = 3
  Number of Hsp70 positive cells/cm: 40 cells/cm
Hsp27
  Hsp27: Protection vs. irradiated (%): 75%
Hsp27; UVB 2 J/cm2, n = 3
  Number of Hsp27 positive cells/cm: 380 cells/cm
[3]; 0.05 mM
  % SBC (Sun Burn Cells): 45%
[3]; 0.1 mM
  % SBC (Sun Burn Cells): 30%

Reference: patent US20090214607A1, “Topical use of teprenone” (SEDERMA, priority 2005, published 2009)
